# According to ChEMBL document CHEMBL3856210, “Discovery of in vitro antitubercular agents through in silico ligand-based approaches” (Eur J Med Chem, 2016):
# Experiment: Antitubercular activity against Mycobacterium tuberculosis H37Ra ATCC 25177 after 21 days by agar dilution method
# Assay type: functional
# Conditions: ATCC 25177, 504 h
row,Structure (SMILES),MIC [µg/mL]
1,COCc1nn2c(=O)cc(CCc3c(C)n[nH]c3C)[nH]c2c1-c1ccc(Cl)cc1,16
2,CCCc1cc(=O)n2nc(C)c(-c3ccc(OC)c(OC)c3)c2[nH]1,64
3,Cc1nn2c(=O)cc(Cc3ccsc3)[nH]c2c1-c1ccc(Cl)cc1,32
4,Cc1cccc(-c2nn3c(=O)cc(CCc4c(C)n[nH]c4C)[nH]c3c2C)c1,64
5,Cc1n[nH]c(C)c1CCc1cc(=O)n2nc(C)c(-c3ccc(Cl)cc3)c2[nH]1,8
6,Cc1c(-c2cccc(Cl)c2)nn2c(=O)cc(CCCN3CCOCC3)[nH]c12,32
7,COc1ccc(-c2cnn3c(=O)c4c([nH]c23)CCCC4)cc1OC,32
8,Fc1ccc([C@H](c2cn(Cc3ccccc3)nn2)n2ccnc2)cc1,64
9,Fc1ccc([C@H](c2cn(-c3ccccc3)nn2)n2ccnc2)cc1,32
10,CC1=NN(c2ccc(Cl)cc2)C(=O)/C1=C(/c1ccc(Cl)cc1)N1CCOCC1,4
11,CC1=NN(c2ccc(Cl)cc2)C(=O)/C1=C(/c1ccc(Cl)cc1)N1CCSCC1,8
12,CC1=NN(c2ccc(Cl)cc2)C(=O)/C1=C(/c1ccc(Cl)cc1)N1CCC(C)CC1,64
13,CC1=NN(c2ccccc2)C(=O)/C1=C(/c1ccc(Cl)cc1)N1CCN(C)CC1,8
14,CC1=NN(c2ccccc2)C(=O)/C1=C(/c1ccc(Cl)cc1)N1CCOCC1,16
15,CC1=NN(c2ccc(Cl)cc2)C(=O)/C1=C(/c1ccc(Cl)cc1)N1CCN(C)CC1,4
16,CC1=NN(c2ccc(Cl)cc2)C(=O)/C1=C(/c1ccc(Cl)cc1)N1CCCCC1,> 64
17,CC1=NN(c2ccc(Cl)cc2)C(=O)/C1=C(/c1ccc(Cl)cc1)N(C)C,16
18,CC1=NN(c2ccccc2)C(=O)/C1=C(/c1ccc(Cl)cc1)N1CCSCC1,8
19,CC1=NN(c2ccccc2)C(=O)/C1=C(/c1ccc(Cl)cc1)N(C)C,32
20,O=C(COc1ccccc1)OC(Cn1ccnc1)c1ccc(Cl)cc1 (racemic),64
21,O=C(OC(Cn1ccnc1)c1ccc(Cl)cc1)N1CCN(c2ccc([N+](=O)[O-])cc2)CC1 (racemic),16
22,O=C(OC(Cc1ccccc1)c1ccc(Cl)cc1)N1CCN(c2ccc(Cl)c(Cl)c2)CC1 (racemic),64
23,O=C(OC(Cn1ccnc1)c1ccc(Cl)cc1)N1CCN(c2ccc(Cl)c(Cl)c2)CC1 (racemic),4
24,O=C(OC(Cn1cccc1)c1ccc(Cl)cc1)N1CCN(c2ccc(Cl)c(Cl)c2)CC1 (racemic),64

# Experiment: Drug level in human liver microsomes assessed as CYP450-mediated compound formation treated with (+/-)-1-(4-Chlorophenyl)-2-(1H-imidazol-1-yl)ethyl-4-(3,4-dichlorophenyl)piperazine-1-carboxylate at 50 uM after 60 mins in presence of NADPH by LC-MS analysis
# Assay type: ADME
# Conditions: not given
row,Structure (SMILES),Drug metabolism
1,O=C(OC(c1ccc(Cl)cc1)C(O)n1ccnc1)N1CCN(c2ccc(Cl)c(Cl)c2)CC1 (stereo not given),Metabolite_Detected
